Measurements from US7378375B1, “Substituted pyridine herbicides” (Syngenta Crop Protection, Inc., priority 2000, dated 2008).

Columns and labels:
[1] = test system: Monocotyledonous and dicotyledonous test plants; assay: Post-emergence herbicidal action, greenhouse pot test, sprayed at the 2- to 3-leaf stage, 9-level rating after 2 to 3 weeks; assay type: in vivo; set-up: key: 9-level scale: 1 = complete damage, 9 = no effect; details: 250 g/ha, rated after 2 to 3 weeks, 9-level scale
Method: Post-Emergence Herbicidal Action
Monocotyledonous and dicotyledonous test plants are grown in standard soil in pots. At the 2- to 3-leaf stage of the test plants, the test substances are sprayed at optimum dosage (500 l of water/ha) as an aqueous suspension (prepared from a wettable powder (example F3, b) according to WO 97/34485) or emulsion (prepared from an emulsion concentrate (example F1, c) according to WO 97/34485). The test plants are then grown further under optimum conditions in a greenhouse.
After a test period of 2 to 3 weeks, the test is evaluated using a 9-level scale of rating (1=complete damage, 9=no effect). Ratings of 1 to 4 (in particular 1 to 3) mean good to very good herbicidal action.

[2] = test system: Monocotyledonous and dicotyledonous test plants; assay: Herbicidal action before emergence of the plants (pre-emergence action), greenhouse pot test, 9-level rating after 4 weeks; assay type: in vivo; set-up: key: 9-level scale: 1 = complete damage, 9 = no effect; details: 250 g/ha, rated after 4 weeks, 9-level scale
Method: Herbicidal Action Before Emergence of the Plants (Pre-Emergence Action)
Monocotyledonous and dicotyledonous test plants are sown in standard soil in pots. Immediately after sowing, the test substances are sprayed on at an optimum dosage (500 l of water/ha) as an aqueous suspension (prepared from a wettable powder (example F3, b) according to WO 97/34485) or emulsion (prepared from an emulsion concentrate (example F1, c) according to WO 97/34485). The test plants are then grown under optimum conditions in a greenhouse.
After a test period of 4 weeks, the test is evaluated using a 9-level scale of ratings (1=complete damage, 9=no effect). Ratings of 1 to 4 (in particular 1 to 3) mean good to very good herbicidal action.

SMILES | Post-emergence action rating, Abutilon [1] | Post-emergence action rating, Amaranth [1] | Post-emergence action rating, Chenop. [1] | Post-emergence action rating, Digitaria [1] | Post-emergence action rating, Echino. [1] | Post-emergence action rating, Ipopur. [1] | Post-emergence action rating, Panicum [1] | Post-emergence action rating, Xanth. [1] | Pre-emergence action rating, Abutilon [2] | Pre-emergence action rating, Amaranthus [2] | Pre-emergence action rating, Chenop. [2] | Pre-emergence action rating, Digitaria [2] | Pre-emergence action rating, Echino. [2] | Pre-emergence action rating, Panicum [2]
COCCOCc1nc(C(F)(F)F)ccc1C(=O)C1=C(O)C(C)(C)C(=O)C(C)(C)C1=O [A10-B39] | 1 | 1 | 1 | 3 | 3 | 2 | 1 | 2 | 1 | 1 | 1 | 1 | 1 | 1
CCN(CC)CC.COCCOCc1nc(C(F)(F)F)ccc1C(=O)C1=C(O)C2CCC(C2)C1=O (stereo not shown) [A10-B52 (Et3NH+)] | 2 | 2 | 1 | 2 | 2 | 2 | 2 | 2 | 1 | 1 | 1 | 1 | 2 | 1
COCCOCc1nc(C(F)(F)F)ccc1C(=O)C1=C(O)C2CCC(C2)C1=O (stereo not shown) [A10-B52, (H3), 4-Hydroxy-3-[2-(2-methoxyethoxymethyl)-6-trifluoromethylpyridine-3-carbonyl]-bicyclo[3.2.1]oct-3-en-2-one] | 1 | 2 | 1 | 1 | 2 | 2 | 1 | 2 | 1 | 1 | 1 | 1 | 1 | 1
COCCOCc1nc(C(F)(F)F)ccc1C(=O)C1=C(O)CC(C)CC1=O (stereo not shown) [A10-B111] | 3 | 2 | 1 | 2 | 3 | 3 | 2 | 3 | 1 | 1 | – | 1 | 1 | 1
COCCOCc1nc(C(F)(F)F)ccc1C(=O)c1c(C)nn(C)c1O [A10-C2 (H6), (5-Hydroxy-1,3-dimethyl-1H-pyrazol-4-yl)-[2-(2-methoxyethoxymethyl)-6-trifluoromethylpyridin-3-yl]methanone] | 2 | 1 | 1 | 4 | 3 | 3 | 2 | 1 | 1 | 2 | 1 | 3 | 3 | 3
COCCOCc1nc(C(F)(F)F)ccc1C(=O)c1cnn(C)c1O [A10-C5] | 2 | 1 | 1 | 2 | 2 | 2 | 2 | 2 | 1 | 1 | 1 | 3 | 1 | 2
COCCOCc1nc(C(F)(F)F)ccc1C(=O)c1cnn(C)c1OS(C)(=O)=O [A10-C28] | 3 | 2 | 1 | 4 | 4 | 3 | 4 | 3 | 1 | 1 | 1 | 3 | 2 | 1
COCCOCc1nc(C(F)(F)F)ccc1C(=O)c1cnn(C)c1OS(=O)(=O)c1ccc(C)cc1 [A10-C29] | 2 | 2 | 1 | 3 | 3 | 1 | 2 | 2 | 1 | 1 | – | 2 | 1 | 2
CCOCCOCc1nc(C(F)(F)F)ccc1C(=O)C1=C(O)C2CCC(C2)C1=O (stereo not shown) [A11-B52] | 2 | 1 | 1 | 1 | 2 | 2 | 1 | 2 | 1 | 2 | 1 | 1 | 1 | 1
CCOCCOCc1nc(C(F)(F)F)ccc1C(=O)c1cnn(C)c1O [A11-C5] | 2 | 2 | 1 | 2 | 2 | 2 | 1 | 2 | 1 | 1 | 1 | 2 | 1 | 1
CCOCCOCc1nc(C(F)(F)F)ccc1C(=O)c1cnn(C)c1OS(C)(=O)=O [A11-C28] | 3 | 2 | 1 | 4 | 4 | 3 | 3 | 3 | 2 | 1 | 1 | 2 | 1 | 2
C#CCOCc1nc(C(F)(F)F)ccc1C(=O)C1=C(O)C2CCC(C2)C1=O (stereo not shown) [A18-B52] | 1 | 1 | 1 | 1 | 2 | 2 | 1 | 2 | 2 | 2 | – | 1 | 1 | 1
C=CCOCc1nc(C(F)(F)F)ccc1C(=O)C1=C(O)C2CCC(C2)C1=O (stereo not shown) [A19-B52] | 1 | 1 | 1 | 1 | 2 | 1 | 1 | 2 | 1 | 2 | – | 1 | 1 | 1
